{"source": "paper PMC4585962", "about": "“A peptide factor secreted by Staphylococcus pseudintermedius exhibits properties of both bacteriocins and virulence factors” (Scientific Reports, 2015)", "key": {"[1]": {"system": "Klebsiella pneumoniae ATCC 13886", "experiment": "MIC, microdilution assay", "type": "cell-based", "conditions": "broth microdilution (CLSI), MHB, overnight 37 °C, OD 600 nm; highest concentration tested 100 μM", "protocol": "(§1) The microbicidal activity of BacSp222 was determined using the microdilution method in compliance with Clinical and Laboratory Standards Institute (CLSI, for bacteria) guidelines M7-A7[57] and in compliance with the European Committee on Antimicrobial Susceptibility Testing - Subcommittee on Antifungal Susceptibility Testing (EUCAST-AFST, for fungi)[58]. Briefly, the microorganisms were cultivated in dedicated liquid media to reach the early exponential phase or, in the case of Streptococcus spp., grown overnight on agar MHB supplemented with 2.5% (v/v) lysed horse blood (LHB). Subsequently, the microorganisms were diluted to 1 × 10^6 CFU/ml (estimated using an Eddy Jet 2 automatic spiral plater, IUL) in MHB; in MHB supplemented with 5% (v/v) LHB (for streptococci); or, in the case of Candida albicans, in RPMI-1640 medium (Thermo) without L-Glu and phenol red, supplemented with 0.6 g/l L-Glu, 34.53 g/l 3-(N-morpholino)propanesulphonic acid and 18 g/l glucose, pH 7.0. Fifty microliters of microorganism suspension were mixed with an equal volume of appropriate medium containing serial 2- or 1.5-fold dilutions of BacSp222. After the cultures were incubated overnight at 37 °C, the optical density (OD) at 600 nm was measured. The minimal inhibitory concentration (MIC), calculated as a mean value from three independent measurements, was defined as the minimum peptide concentration for which an increase in OD was not observed compared to uninoculated broth."}, "[2]": {"system": "Staphylococcus aureus KB/8658", "experiment": "MIC, microdilution assay", "type": "cell-based", "conditions": "broth microdilution (CLSI), MHB, overnight 37 °C, OD 600 nm; mean of three independent measurements", "protocol": "as §1"}, "[3]": {"system": "Staphylococcus saprophyticus ATCC 15305", "experiment": "MIC, microdilution assay", "type": "cell-based", "conditions": "broth microdilution (CLSI), MHB, overnight 37 °C, OD 600 nm; mean of three independent measurements", "protocol": "as §1"}, "[4]": {"system": "Staphylococcus intermedius ATCC 29663", "experiment": "MIC, microdilution assay", "type": "cell-based", "conditions": "broth microdilution (CLSI), MHB, overnight 37 °C, OD 600 nm; mean of three independent measurements", "protocol": "as §1"}, "[5]": {"system": "Staphylococcus pseudintermedius 222", "experiment": "MIC, microdilution assay", "type": "cell-based", "conditions": "bacteriocin-producing strain; broth microdilution (CLSI), MHB, overnight 37 °C, OD 600 nm; mean of three independent measurements", "protocol": "as §1"}, "[6]": {"system": "Staphylococcus pseudintermedius LMG 22219", "experiment": "MIC, microdilution assay", "type": "cell-based", "conditions": "nonproducer strain; broth microdilution (CLSI), MHB, overnight 37 °C, OD 600 nm; mean of three independent measurements", "protocol": "as §1"}, "[7]": {"system": "Bacillus subtilis ATCC 6633", "experiment": "MIC, microdilution assay", "type": "cell-based", "conditions": "broth microdilution (CLSI), MHB, overnight 37 °C, OD 600 nm; mean of three independent measurements", "protocol": "as §1"}, "[8]": {"system": "Streptococcus pyogenes PCM 465", "experiment": "MIC, microdilution assay", "type": "cell-based", "conditions": "broth microdilution (CLSI), MHB with 5% lysed horse blood, overnight 37 °C, OD 600 nm; mean of three independent measurements", "protocol": "as §1"}, "[9]": {"system": "Streptococcus sanguinis PCM 2335", "experiment": "MIC, microdilution assay", "type": "cell-based", "conditions": "broth microdilution (CLSI), MHB with 5% lysed horse blood, overnight 37 °C, OD 600 nm; mean of three independent measurements", "protocol": "as §1"}, "[10]": {"system": "Serratia marcescens ATCC 274", "experiment": "MIC, microdilution assay", "type": "cell-based", "conditions": "broth microdilution (CLSI), MHB, overnight 37 °C, OD 600 nm; highest concentration tested 100 μM", "protocol": "as §1"}, "[11]": {"system": "Staphylococcus epidermidis ATCC 35547", "experiment": "MIC, microdilution assay", "type": "cell-based", "conditions": "broth microdilution (CLSI), MHB, overnight 37 °C, OD 600 nm; mean of three independent measurements", "protocol": "as §1"}, "[12]": {"system": "Staphylococcus intermedius R-2725", "experiment": "MIC, microdilution assay", "type": "cell-based", "conditions": "broth microdilution (CLSI), MHB, overnight 37 °C, OD 600 nm; mean of three independent measurements", "protocol": "as §1"}, "[13]": {"system": "Micrococcus luteus ATCC 4698", "experiment": "MIC, microdilution assay", "type": "cell-based", "conditions": "broth microdilution (CLSI), MHB, overnight 37 °C, OD 600 nm; mean of three independent measurements", "protocol": "as §1"}, "[14]": {"system": "HeLa cells", "experiment": "Cytotoxicity, LDH and MTT assays", "type": "cell-based, human", "conditions": "4 h exposure, said to be similar to the other cell types (Fig. S7)", "protocol": "Human skin fibroblasts (HSF, ATCC CRL-2522), adipose-derived stem cells (ASCs, ATCC PCS-500-011), and HeLa human epithelioid cervix carcinoma cells (ATCC CCL-2) were maintained in Dulbecco’s modified Eagle’s medium (DMEM, Sigma) containing 1 g/l glucose, 10% (v/v) foetal bovine serum (FBS), 1 U/ml penicillin, 1 μg/ml streptomycin, and 2.5 μg/ml amphotericin B. Murine P388/D1 monocyte/macrophage cells (ATCC CCL-46) and murine RAW264.7 macrophage-like cells (ATCC TIB-71) were cultured in DMEM containing 4.5 g/l glucose, 5% (v/v) FBS, and antibiotics, as indicated above. Keratinocytes from human skin were grown in KBM Gold Medium (Lonza). All cells were incubated in standard conditions (5% CO2, 37 °C, >95% humidity). […] After a 30-min incubation (RT, in the dark), the reaction was stopped, and the absorbance was measured with a microplate reader (PowerWave X, BioTek Instruments) at 490 nm, followed by subtraction of the absorbance reference value at 690 nm. […] The absorbance of solubilized purple formazan was measured at 540 nm, followed by subtraction of the absorbance reference value at 690 nm. […] The amount of released haemoglobin was spectrophotometrically determined at 540 nm and compared with a positive control (erythrocytes lysed with 1% sodium dodecyl sulphate)."}}, "note": "No end group written: not given here. *: point of attachment. For = O=C*", "data": [{"substance": "For-MAGLLRFLLSKGRALYNWAKSHVGKVWEWLKSGATYEQIKEWIENALGWR [BacSp222]", "values": [{"measurement": "MIC ± SD", "setting": "[1]", "result": ">100", "unit": "µM"}, {"measurement": "MIC ± SD", "setting": "[2]", "result": "1.30 ± 0.00", "unit": "µM"}, {"measurement": "MIC ± SD", "setting": "[3]", "result": "0.93 ± 0.36", "unit": "µM"}, {"measurement": "MIC ± SD", "setting": "[4]", "result": "2.00 ± 0.00", "unit": "µM"}, {"measurement": "MIC ± SD", "setting": "[5]", "result": 2.1, "unit": "µM"}, {"measurement": "MIC ± SD", "setting": "[6]", "result": 0.16, "unit": "µM"}, {"measurement": "MIC ± SD", "setting": "[7]", "result": "0.16 ± 0.00", "unit": "µM"}, {"measurement": "MIC ± SD", "setting": "[8]", "result": 7.8, "unit": "µM"}, {"measurement": "MIC ± SD", "setting": "[9]", "result": "3.50 ± 0.85", "unit": "µM"}, {"measurement": "MIC ± SD", "setting": "[10]", "result": ">100", "unit": "µM"}, {"measurement": "MIC ± SD", "setting": "[11]", "result": "4.40 ± 0.00", "unit": "µM"}, {"measurement": "MIC ± SD", "setting": "[12]", "result": "1.20 ± 0.24", "unit": "µM"}, {"measurement": "MIC ± SD", "setting": "[13]", "result": 0.11, "unit": "µM"}, {"measurement": "cytotoxic effect", "setting": "[14]", "result": "sigmoidal, dose-dependent cytotoxic effect"}]}]}
